Assay results as given in publication PMC5720837, “Identification of a 4-fluorobenzyl L-valinate amide benzoxaborole (AN11736) as a potential development candidate for the treatment of Animal African Trypanosomiasis (AAT)” (Bioorganic & Medicinal Chemistry Letters, 2018).
“And” between values parts separate entries of the source, which are not always exact repeats. Equal entries are not always repeated.

Columns and labels:
[1] = In vitro metabolic stability, mouse S9; assay type: in vitro ADME; details: S9 fraction
In short: (§1)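 Stability measured in mouse and bovine S9 fractions.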

[2] = In vitro metabolic stability, bovine S9; assay type: in vitro ADME; details: S9 fraction
In short: as §1

T. congolense = assay: Efficacy against induced T. congolense infection in cattle; assay type: in vivo; details: single intramuscular injection of 10 mg/kg, 100 days post treatment
Protocol: (§2) Selected compounds were screened in both mouse and bovine in vitro metabolic stability assays (mouse S9 and bovine S9), as summarized in Table 2. These two species were chosen because the primary in vivo assays were conducted in mice, and the target animal of this research program is cattle. […] We evaluated the efficacy of selected compounds in two in vivo mouse models of infection, against T. congolense and T. vivax, respectively. Mice were infected with either 1 × 10^5 T. c. parasites or 1 × 10^4 T. v. parasites, and then treated with a test compound via intraperitoneal administration for 1, 2 or 4 consecutive days. The mice were then monitored for the presence of parasitemia for up to 60 days post treatment.[7] We tested in T. c. model first, then followed up with T. v. for interesting compounds. […] We selected compound 5 (AN11736) to progress to exploratory studies to determine the efficacy and safety in a preliminary formulation against induced infections of T. vivax and T. congolense in cattle.[8]
(§3) [8] Method for testing compound efficacy in cattle: The cattle studies were conducted in accordance with the method described for cattle by Eisler et al. (2001) in studies conducted in fly-proof facilities and using T. congolense and T. vivax isolates that had previously been confirmed resistant in cattle to diminazine (7 mg/kg live weight) and/or isometamidium (1 mg/kg live weight). […]

[3] = tested on: T. c. parasites (STIB736/IL1180 strain); assay: In vivo mouse model of T. congolense infection; parameters: species or system NMRI female mice; details: for Efficacy in mouse model T. c., n/m (mice survived / total mice in group): intraperitoneal, monitored 60 days post treatment
In short: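 Female NMRI mice infected i.p. with 1 × 10^5 T. congolense STIB736/IL1180 or 1 × 10^4 T. vivax STIB719/ILRAD560. Treatment began after 7 (T. c.) or 3 (T. v.) days, i.p. in 10% DMSO/water for 1, 2 or 4 consecutive days, four mice per group. Tail-blood parasitemia checked twice weekly; mice aparasitemic at 60 days counted as cured.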

[4] = tested on: Trypanosoma vivax (T. vivax STIB719/ILRAD 560 strain), bloodstream form; assay: Whole cell Alamar Blue assay, T. vivax (48 h ex vivo); assay type: cell-based; details: Trypanosoma vivax; T. vivax STIB719/ILRAD 560, 48 h ex vivo Alamar Blue assay
In short: (§4)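 T. congolense IL-3000 bloodstream forms were grown axenically in HMI-9 (IMDM) with 20% bovine serum at a starting density of 2 × 10^5 for a 72 h assay. T. vivax STIB719 was taken from infected mouse blood and tested ex vivo for 48 h at 4 × 10^5. Alamar Blue fluorescence (ex 536/em 588 nm) gave IC50s from 11-point curves, at least three independent runs.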

[5] = tested on: Trypanosoma congolense (T. congolense IL-3000 strain), bloodstream form; assay: Whole cell Alamar Blue assay, T. congolense (72 h in vitro); assay type: cell-based; details: T. congolense IL-3000, 72 h in vitro Alamar Blue assay
In short: as §4

[6] = tested on: T. v. parasites (STIB719/ILRAD560 strain); assay: In vivo mouse model of T. vivax infection; parameters: species or system NMRI female mice; details: for Efficacy in mouse model T. v., n/m (mice survived / total mice in group): intraperitoneal, monitored 60 days post treatment
Protocol: as §2
[7] Methods for testing compound efficacy in mouse models: In vivo mouse efficacy studies were performed at the Swiss TPH, using established mouse models of infection for T. c. and T. v. NMRI female mice were independently infected either with 1 × 10^5T. c. parasites/mouse (STIB736/IL1180 strain) or 1 × 10^4T. v. parasites/mouse (STIB719/ILRAD560 strain) using an intraperitoneal route. Parasitemia was allowed to develop over 7 days (T. c.) or 3 days (T. v.), respectively, before treatment was administered. Compounds were administered via intraperitoneal injection in 10% DMSO/water. Four mice were used per treatment group. Mice were monitored for the presence of trypanosomes, via tail blood examination microscopically with twice-per-week parasitemia checks for 60 days post treatment. Parasitemia was graded on a scale of 0–3, with 0 indicating no trypanosomes seen in 20 fields of view, 1 indicating the presence of 1–5 trypanosomes per field, 2 indicating the presence of 6–20 trypanosomes per field and 3 indicating greater than 20 trypanosomes per field. Mice scoring 2 or 3 were immediately euthanized. After 60 days, aparasitemic mice were considered cured. Untreated control mice survive on average for 10 and 6 days post infection for T. c. and T. v., respectively. All in vivo mouse experiments were conducted in accordance with the strict guidelines set out by the Swiss Federal Veterinary Office, under the ethical approval of license number #2813.

T. vivax = assay: Efficacy against induced T. vivax infection in cattle; assay type: in vivo; details: single intramuscular injection of 10 mg/kg, 100 days post treatment
Protocol: as §2, §3

## Cc1c(C(=O)N[C@H](C(=O)OCc2ccc(F)cc2)C(C)C)ccc2c1B(O)OC2 [Compound 5, 4-fluorobenzyl (1-hydroxy-7-methyl-1,3-dihydrobenzo[c][1,2]oxaborole-6-carbonyl)-L-valinate]
[1]
  microsomal CLint: 5.4 µL/min/mg
[2]
  microsomal CLint: 9.3 µL/min/mg
T. congolense
  curative efficacy against T. congolense in cattle: 100%
[3]; 1 × 5 mg/kg
  Efficacy in mouse model T. c., n/m (mice survived / total mice in group): 0/4
[3]; 1 × 10 mg/kg
  Efficacy in mouse model T. c., n/m (mice survived / total mice in group): 4/4
[3]; 2 × 10 mg/kg
  Efficacy in mouse model T. c., n/m (mice survived / total mice in group): 5/5
[3]; single 5 mg/kg dose, IP
  cure of T. c.-infected mice: unable to cure
[4]
  IC50: 1.3 nM
[5]
  IC50: 0.14 nM
[5]; Trypanosoma congolense, 72 h
  IC50: 0.15 nM
[6]; 1 × 10 mg/kg, 10 mg/kg
  Efficacy in mouse model T. v., n/m (mice survived / total mice in group): 5/5 and 4/4
[6]; 2 × 10 mg/kg
  Efficacy in mouse model T. v., n/m (mice survived / total mice in group): 5/5
[6]; single dose of 10 mg/kg, IP
  curative efficacy in the T. v.-infected mouse model: 100%
T. vivax
  curative efficacy against T. vivax in cattle: 100%
